Assay: Radiolysis / stability of [18F]DCFPyL over time by HPLC with radiodetection (RCP, free 18F, radioactive impurities)
Type: physicochemical
Details: for RT 4.8 radioactive impurity: MPA = 0.25% of main peak; for RCP: T = 10 hour; for 18F-DCFPyL / Free 18F: forced radiolysis in ethanol, 364.5 mCi/mL; for RT 5.0 min / RT 5.9 min / RT 12.0 min / RT 12.2 min: radioactive impurity
Experimental: Those of ordinary skill in the art will be aware of techniques and systems for determining the radiochemical purity of a composition. In some cases, the radiochemical purity is determined using an HPLC associated with a radio-detector. Generally, the radiochemical purity is determined under ambient conditions (e.g., ambient temperature, ambient humidity, ambient light, etc.), such as in samples stored under such conditions.
Stability was assessed using reverse phase HPLC on a C18 column with a phosphate buffer/acetonitrile gradient mobile phase, and the elution profile was monitored using both UV and radiochemical detectors. Samples were analyzed either by direct injection onto the HPLC, dilution and injection or including the addition of tetraethylammonium fluoride (TEAF) into the sample before injection.
Known amounts of free ^18F either alone or spiked with TEAF were injected onto the analytic column and the eluent from the column collected over the course of a chromatogram and assaying the radioactivity using a Capintec. […] Adding TEAF into the analytic samples was incorporated into subsequent studies examining potential radiolysis of [^18F]DCFPyL to overcome some of the limitations of free ^18F quantification.
Analytical HPLC method was used. The method employs UV detection at 264 nm for chemical impurities, and an Eckert & Ziegler model B-FC-1000 gamma detector for radiochemical assays.

[1] = T = 6 hr, 5 mg/mL ascorbic acid pH 5.8, 20% ethanol, 99.0 mCi/mL at EOS
[2] = T = 6 hr, 50 mg/mL ascorbic acid pH 5.8, 20% ethanol, 139.7 mCi/mL at EOS
[3] = T = 6 hr, 100% ethanol, 325 mCi/mL at EOS
[4] = T = 7 hr, 100% ethanol, 325 mCi/mL at EOS
[5] = T = 8 hr, 100% ethanol, 325 mCi/mL at EOS
[6] = T = 9 hr, 100% ethanol, 325 mCi/mL at EOS
[7] = T = 10 hr, +TEAF added to sample before HPLC, 100% ethanol, 325 mCi/mL at EOS
[8] = T = 10 hr, 1 mg/mL ascorbic acid pH 5.8, 20% ethanol, 107.0 mCi/mL at EOS
[9] = T = 10 hr, 5 mg/mL ascorbic acid pH 5.8, 20% ethanol, 99.0 mCi/mL at EOS
[10] = T = 10 hr, 50 mg/mL ascorbic acid pH 5.8, 20% ethanol, 139.7 mCi/mL at EOS
[11] = T = 10 h, TEAF added (44 mg/mL) to sharpen the 18F peak
[12] = 147 mCi/mL in 0.9% Sodium Chloride, USP, T = 0 h
[13] = 147 mCi/mL in 0.9% Sodium Chloride, USP, T = 0.5 h
[14] = 147 mCi/mL in 0.9% Sodium Chloride, USP, T = 1.0 h
[15] = 147 mCi/mL in 0.9% Sodium Chloride, USP, T = 1.5 h
[16] = 147 mCi/mL in 0.9% Sodium Chloride, USP, T = 2.0 h
[17] = 147 mCi/mL in 0.9% Sodium Chloride, USP, T = 2.5 h
[18] = 147 mCi/mL in 0.9% Sodium Chloride, USP, T = 3.0 h
[19] = 147 mCi/mL in 0.9% Sodium Chloride, USP, T = 3.5 h
[20] = 147 mCi/mL in 0.9% Sodium Chloride, USP, T = 4.0 h
[21] = 256 mCi/mL in ethanol, T = 1.0 h
[22] = 256 mCi/mL in ethanol, T = 1.5 h
[23] = 256 mCi/mL in ethanol, T = 2.0 h
[24] = 256 mCi/mL in ethanol, T = 2.5 h
[25] = 256 mCi/mL in ethanol, T = 3.0 h
[26] = 256 mCi/mL in ethanol, T = 3.5 h
[27] = 256 mCi/mL in ethanol, T = 4.0 h

O=C(O)CC[C@H](NC(=O)N[C@@H](CCCCNC(=O)c1ccc([18F])nc1)C(=O)O)C(=O)O [Lot 18F-DCFPyL, 2-(3-{1-carboxy-5-[(6-[18F]fluoro-pyridine-3-carbonyl)-amino]-pentyl}ureido)-pentanedioic acid]
Free F-18 (T = 6 hr, 1 mg/mL ascorbic acid pH 5.8, 20% ethanol, 107.0 mCi/mL at EOS): 1.57% | Free F-18 (T = 6 hr, 1 mg/mL sodium ascorbate, 20% ethanol, 111.5 mCi/mL at EOS): 2.81% | 18F-DCFPyL (% RCP) [1]: 99.09% | Free F-18 [1]: 0.91% | Free F-18 (T = 6 hr, 5 mg/mL sodium ascorbate, 20% ethanol, 114.6 mCi/mL at EOS): 1.45% | 18F-DCFPyL (% RCP) [2]: 99.64% | Free F-18 [2]: 0.36% | RT 4.8 radioactive impurity [2]: <MPA | 18F-DCFPyL (RCP) [3]: 96.73% | Free F-18 [3]: 4.27% | 18F-DCFPyL (RCP) [4]: 96.42% | Free F-18 [4]: 4.58% | 18F-DCFPyL (RCP) [5]: 95.76% | Free F-18 [5]: 4.24% | 18F-DCFPyL (RCP) [6]: 95.31% | Free F-18 [6]: 4.69% | RCP (120 mCi/mL, ascorbic acid 5.6 mg/mL pH 6.0): 96.9% | RCP (127 mCi/mL, ascorbic acid 2.8 mg/mL pH 6.0): 96.1% | RCP (166 mCi/mL, ascorbic acid 5.6 mg/mL pH 6.0): 95.5% | 18F-DCFPyL (RCP) [7]: 92.7% | Free F-18 [7]: 7.35% | Free F-18 (T = 10 hr, +TEAF added to sample before HPLC, 100% ethanol, 325 mCi/mL at EOS, listed as 18F DCFPyL): 7.4% | Free F-18 (T = 10 hr, no TEAF, 100% ethanol, 325 mCi/mL at EOS): 4.55% | Free F-18 (T = 10 hr, no TEAF, 100% ethanol, 325 mCi/mL at EOS, listed as 18F DCFPyL): 4.6% | Free F-18 (T = 10 hr, 0.5 mg/mL ascorbic acid pH 5.8, 20% ethanol, 105.8 mCi/mL at EOS): 1.42% | 18F-DCFPyL (% RCP) [8]: 98.36% | Free F-18 [8]: 1.64% | Free F-18 (T = 10 hr, 1 mg/mL sodium ascorbate, 20% ethanol, 111.5 mCi/mL at EOS): 2.74% | 18F-DCFPyL (% RCP) [9]: 99.05% | Free F-18 [9]: 0.95% | Free F-18 (T = 10 hr, 5 mg/mL sodium ascorbate, 20% ethanol, 114.6 mCi/mL at EOS): 1.51% | 18F-DCFPyL (% RCP) [10]: 99.34% | Free F-18 [10]: 0.30% | RT 4.8 radioactive impurity [10]: 0.36% | 18F-DCFPyL (RCP) (T = 10 hr, 100% ethanol, 325 mCi/mL at EOS): 95.45% | 18F-DCFPyL (RCP) (T = 10 hr, 100% ethanol, 325 mCi/mL at EOS, listed as 18F DCFPyL): 95.5% | 18F-DCFPyL (T = 0 h): 98.37 area % | Free 18F (T = 0 h): 1.63 area % | 18F-DCFPyL (T = 1 h): 96.66 area % | Free 18F (T = 1 h): 3.34 area % | 18F-DCFPyL (T = 2 h): 96.38 area % | Free 18F (T = 2 h): 3.62 area % | 18F-DCFPyL (T = 3 h): 95.71 area % | Free 18F (T = 3 h): 4.29 area % | 18F-DCFPyL (T = 4 h): 95.60 area % | Free 18F (T = 4 h): 4.40 area % | 18F-DCFPyL (T = 5 h): 95.58 area % | Free 18F (T = 5 h): 4.42 area % | 18F-DCFPyL (T = 6 h): 95.73 area % | Free 18F (T = 6 h): 4.27 area % | 18F-DCFPyL (T = 7 h): 95.42 area % | Free 18F (T = 7 h): 4.58 area % | 18F-DCFPyL (T = 8 h): 95.76 area % | Free 18F (T = 8 h): 4.24 area % | 18F-DCFPyL (T = 9 h): 95.31 area % | Free 18F (T = 9 h): 4.69 area % | 18F-DCFPyL (T = 10 h): 95.45 area % | Free 18F (T = 10 h): 4.55 area % | 18F-DCFPyL [11]: 92.65 area % | Free 18F [11]: 7.35 area % | two impurities eluting before the 18F-DCFPyL peak, upper end of range (<LLQ to ...) (over 4 hours, 110 mCi/mL lot, 50 mg/mL pH 5.8 ascorbic acid, 24% (w/w) ethanol): ≤ 0.37% | impurity eluting before the 18F-DCFPyL peak, upper end of range (<LLQ to ...) (over 4 hours, 256 mCi/mL lot, 100 mg/mL pH 2.0 ascorbic acid in collection vial): ≤ 0.35% | RT 5.0 min (110 mCi/mL in 50 mg/mL pH 5.8 ascorbic acid, T = 0 h): 0.27 area % | RT 5.0 min (110 mCi/mL in 50 mg/mL pH 5.8 ascorbic acid, T = 0.5 h): 0.28 area % | RT 5.0 min (110 mCi/mL in 50 mg/mL pH 5.8 ascorbic acid, T = 1.0 h): 0.26 area % | RT 5.0 min (110 mCi/mL in 50 mg/mL pH 5.8 ascorbic acid, T = 1.5 h): 0.34 area % | RT 5.0 min (110 mCi/mL in 50 mg/mL pH 5.8 ascorbic acid, T = 2.0 h): 0.24 area % | RT 5.0 min (110 mCi/mL in 50 mg/mL pH 5.8 ascorbic acid, T = 2.5 h): 0.34 area % | RT 5.0 min (110 mCi/mL in 50 mg/mL pH 5.8 ascorbic acid, T = 3.0 h): 0.35 area % | RT 5.0 min (110 mCi/mL in 50 mg/mL pH 5.8 ascorbic acid, T = 3.5 h): 0.31 area % | RT 5.0 min (110 mCi/mL in 50 mg/mL pH 5.8 ascorbic acid, T = 4.0 h): 0.31 area % | RT 5.0 min [12]: 0.50 area % | RT 5.9 min [12]: 0.64 area % | RT 5.0 min [13]: 0.65 area % | RT 5.9 min [13]: 0.97 area % | RT 5.0 min [14]: 0.48 area % | RT 5.9 min [14]: 1.11 area % | RT 5.0 min [15]: 0.61 area % | RT 5.9 min [15]: 1.03 area % | RT 5.0 min [16]: 0.77 area % | RT 5.9 min [16]: 1.05 area % | RT 5.0 min [17]: 0.62 area % | RT 5.9 min [17]: 0.93 area % | RT 5.0 min [18]: 0.70 area % | RT 5.9 min [18]: 0.87 area % | RT 5.0 min [19]: 0.59 area % | RT 5.9 min [19]: 0.95 area % | RT 5.0 min [20]: 0.71 area % | RT 5.9 min [20]: 0.96 area % | RT 5.0 min [21]: 0.35 area % | RT 12.0 min [21]: 0.35 area % | RT 12.2 min [21]: 0.31 area % | RT 5.0 min [22]: 0.28 area % | RT 12.0 min [22]: 0.46 area % | RT 12.2 min [22]: 0.37 area % | RT 5.0 min [23]: 0.50 area % | RT 12.0 min [23]: 0.52 area % | RT 12.2 min [23]: 0.47 area % | RT 12.0 min [24]: 0.52 area % | RT 12.2 min [24]: 0.46 area % | RT 12.0 min [25]: 0.69 area % | RT 12.2 min [25]: 0.57 area % | RT 12.0 min [26]: 0.87 area % | RT 12.2 min [26]: 0.75 area % | RT 12.0 min [27]: 0.96 area % | RT 12.2 min [27]: 0.69 area %

— US20250019350A1, “SYNTHESIS OF THE PROSTATE SPECIFIC MEMBRANE ANTIGEN (PSMA) RADIOLABELED INHIBITOR [18F]DCFPYL” (Progenics Pharmaceuticals, Inc, priority 2023, published 2025)
